What was measured:
hTLR8 = target: T1, hTLR8 (Homo sapiens, UniProt Q9NR97); assay: Agonistic activity on human TLR8 in HEK-Blue hTLR8 cells (QUANTI-Blue); type: cell-based; settings: 24 h incubation, OD650, read-out: hTLR 8 EC50
T1 construct: expressed in transfected cells; host or cells: HEK-Blue hTLR8 cells
T1 sequence (Q9NR97 27-1041): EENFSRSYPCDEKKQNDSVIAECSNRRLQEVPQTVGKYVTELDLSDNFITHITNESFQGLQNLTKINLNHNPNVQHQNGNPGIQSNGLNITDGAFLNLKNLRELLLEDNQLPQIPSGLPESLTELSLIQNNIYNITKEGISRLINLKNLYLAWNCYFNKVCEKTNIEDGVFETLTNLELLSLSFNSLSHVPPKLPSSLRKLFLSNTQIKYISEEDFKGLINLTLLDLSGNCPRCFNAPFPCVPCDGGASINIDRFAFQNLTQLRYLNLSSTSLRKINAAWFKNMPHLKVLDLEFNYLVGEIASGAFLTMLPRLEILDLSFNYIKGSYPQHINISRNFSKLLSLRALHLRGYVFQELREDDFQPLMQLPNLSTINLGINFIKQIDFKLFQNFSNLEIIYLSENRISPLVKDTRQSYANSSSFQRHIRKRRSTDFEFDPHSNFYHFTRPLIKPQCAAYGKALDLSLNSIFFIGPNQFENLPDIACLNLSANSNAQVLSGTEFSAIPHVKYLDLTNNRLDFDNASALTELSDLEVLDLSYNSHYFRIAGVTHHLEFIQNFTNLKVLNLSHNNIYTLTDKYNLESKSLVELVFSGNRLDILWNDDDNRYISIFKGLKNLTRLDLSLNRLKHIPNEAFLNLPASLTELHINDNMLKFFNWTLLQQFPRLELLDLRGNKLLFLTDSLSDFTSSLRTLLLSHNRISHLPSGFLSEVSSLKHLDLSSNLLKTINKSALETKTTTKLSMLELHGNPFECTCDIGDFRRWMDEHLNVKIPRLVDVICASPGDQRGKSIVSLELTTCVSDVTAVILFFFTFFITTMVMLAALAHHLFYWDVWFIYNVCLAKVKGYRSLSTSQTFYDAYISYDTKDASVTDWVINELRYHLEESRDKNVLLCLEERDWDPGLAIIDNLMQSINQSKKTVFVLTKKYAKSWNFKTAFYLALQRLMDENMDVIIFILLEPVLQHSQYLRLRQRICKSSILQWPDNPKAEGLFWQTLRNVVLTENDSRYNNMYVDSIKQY
Procedure: Purpose: HEK-Blue™ hTLR7 and HEK-Blue™ hTLR8 cells were used to detect the agonist and cytotoxic activities of compounds against hTLR7 and hTLR8.
The experimental steps were as shown below: • 1) Preparation of compound: The compound was prepared into a 20 mM stock solution with DMSO, and then the stock solution was diluted 3-fold in a gradient and added to a 96-well plate, for a total of 10 concentrations, with duplicate wells for each concentration. For negative control wells, 0.5 μL DMSO was added to each well. The final DMSO concentration was 0.5%. • 2) HEK-Blue™ hTLR7 or HEK-Blue™ hTLR8 cells were suspended in culture medium and then seeded into 96-well plates containing compounds at a cell count of 50,000 per well. The compounds and cells were incubated for 24 h at 37° C., 5% Co2. • 3) QUANTI-Blue was used for the detection solution: to a mixture of 1 mL of QB reagent and 1 mL of QB buffer was added 98 mL of sterile water, the mixture was mixed and dissolved, and then placed at room temperature for 10 min. • 4) Activity test of the compound: 20 μL of the culture supernatant in step 2) was added to each well of a 96-well plate containing 180 μL of QUANTI-Blue detection solution. After incubation at 37° C. for 1 h, the absorbance at 650 nm (OD650) was detected using a multifunctional microplate reader Flextation III. • 5) Detection of cell activity: The chemiluminescent signal (RLU) was detected using the multifunctional microplate reader Flextation III according to the instructions of Celltiter-Glo. • 6) Data analysis
Activity of compounds: OD650 values were analyzed using GraphPad Prism software, and the compound dose-effect curves were fitted to calculate the EC50 values of the compounds.

hTLR7 = target: T2, hTLR7 (Homo sapiens, UniProt Q9NYK1); assay: Agonistic activity on human TLR7 in HEK-Blue hTLR7 cells (QUANTI-Blue); type: cell-based; settings: 24 h incubation, OD650, read-out: hTLR 7 EC50
T2 construct: expressed in transfected cells; host or cells: HEK-Blue hTLR7 cells
T2 sequence (Q9NYK1 27-1049): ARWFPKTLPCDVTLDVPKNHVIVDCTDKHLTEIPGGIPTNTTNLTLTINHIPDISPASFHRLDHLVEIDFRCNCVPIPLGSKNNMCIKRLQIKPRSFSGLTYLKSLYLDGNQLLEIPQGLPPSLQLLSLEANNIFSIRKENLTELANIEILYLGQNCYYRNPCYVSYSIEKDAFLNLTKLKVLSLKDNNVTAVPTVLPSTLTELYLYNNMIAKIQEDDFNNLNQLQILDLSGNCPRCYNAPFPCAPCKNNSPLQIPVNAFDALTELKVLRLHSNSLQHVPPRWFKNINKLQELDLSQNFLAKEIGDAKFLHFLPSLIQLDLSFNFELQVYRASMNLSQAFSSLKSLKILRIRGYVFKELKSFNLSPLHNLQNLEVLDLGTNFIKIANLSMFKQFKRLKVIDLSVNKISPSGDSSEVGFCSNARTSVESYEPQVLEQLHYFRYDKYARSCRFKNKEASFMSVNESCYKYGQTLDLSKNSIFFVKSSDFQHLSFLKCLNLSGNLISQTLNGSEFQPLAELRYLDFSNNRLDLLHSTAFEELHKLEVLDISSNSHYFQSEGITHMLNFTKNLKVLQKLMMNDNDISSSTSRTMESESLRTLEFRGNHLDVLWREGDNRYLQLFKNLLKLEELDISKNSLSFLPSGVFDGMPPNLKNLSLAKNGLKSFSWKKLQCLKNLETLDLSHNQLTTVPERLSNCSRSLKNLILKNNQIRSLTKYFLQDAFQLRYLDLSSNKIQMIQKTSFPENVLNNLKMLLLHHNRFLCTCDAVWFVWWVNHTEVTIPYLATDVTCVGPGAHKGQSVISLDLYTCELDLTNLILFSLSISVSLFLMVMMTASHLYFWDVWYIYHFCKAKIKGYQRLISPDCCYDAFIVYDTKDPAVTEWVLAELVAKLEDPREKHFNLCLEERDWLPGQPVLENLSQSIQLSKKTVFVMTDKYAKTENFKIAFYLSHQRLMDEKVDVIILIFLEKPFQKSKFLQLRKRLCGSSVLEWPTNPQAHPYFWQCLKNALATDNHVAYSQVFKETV

hERG channel = target: T3, hERG channel (Homo sapiens, UniProt Q12809); assay: hERG channel current in HEK293 cells, automated patch clamp; type: cell-based; settings: HEK-293 cells stably expressing hERG, whole-cell patch clamp, 0.3-30 μM
T3 construct: expressed in transfected cells; host or cells: HEK-293 cells stably expressing hERG
Procedure: Test 2: Detection of the Effect of Compounds on hERG Channel Currents Stably Expressed in HEK293 Cells Using Automated Patch Clamp
Experimental purpose: The concentration-effect relationship of the blocking effect of the compounds on hERG channels was determined using the patch clamp technique and HEK-293 cells stably expressing hERG channels to evaluate their risk of inhibitory effect on cardiac hERG potassium channels.
Experimental method: hERG cells were clamped using the patch clamp technique to form a high-resistance seal and then the membrane was broken. The whole-cell recording mode was used to record the hERG current. Each drug concentration was set to be administered twice for at least 5 minutes. The test concentrations were 0.3 μM, 1 μM, 3 μM, 10 μM and 30 μM, and the changes of the test compounds on hERG current were observed.

CYP1A2 = assay: Induction of CYP1A2 in frozen human hepatocytes; type: in vitro ADME; settings: 72 h induction, concentration and readout not stated
Procedure: (§1) Experimental purpose: Using frozen human hepatocytes as the test system, the induction effects of the test substances on CYP1A2, CYP2B6 and CYP3A4 were evaluated from two aspects of enzyme activity and mRNA level.
(§2) Experimental method: 24 hours after cell plating, induction was started by adding medium containing the test compound (test concentrations were 10, 1, and 0.1 μM), and fresh drug-containing medium was replaced every 24 hours. After 72 hours of induction, the medium was replaced with medium containing CYP1A2, CYP2B6, and CYP3A4 specific substrates for 30 minutes of incubation. 100 μL was taken for treatment, and the labeled metabolites of the substrates were detected to evaluate the enzyme activity level. Finally, the cells were lysed and reverse transcribed, and the expression levels of CYP1A2, CYP2B6 and CYP3A4 genes in the cells were evaluated by real-time quantitative PCR.
(§3) The induction fold of the test compound compared with the blank control and the induction percentage of the test compound compared with the positive control were used as the basis for evaluating the induction potential of the test compound. Among them, the positive control for CYP1A2 is Omeprazole; the positive control for CYP2B6 is Phenobarbital; the positive control for CYP3A4 is Rifampicin.

CYP2B6 = assay: Induction of CYP2B6 in frozen human hepatocytes; type: in vitro ADME; settings: 72 h induction, concentration and readout not stated
Procedure: as §1, §2, §3

CYP3A4 = assay: Induction of CYP3A4 in frozen human hepatocytes; type: in vitro ADME; settings: 72 h induction, concentration and readout not stated
Procedure: as §1, §2, §3

[1] = Cell toxicity (Celltiter-Glo) in HEK-Blue hTLR8 cells; settings: human
in vitro = settings: human

T3 sequence (Q12809 whole entry): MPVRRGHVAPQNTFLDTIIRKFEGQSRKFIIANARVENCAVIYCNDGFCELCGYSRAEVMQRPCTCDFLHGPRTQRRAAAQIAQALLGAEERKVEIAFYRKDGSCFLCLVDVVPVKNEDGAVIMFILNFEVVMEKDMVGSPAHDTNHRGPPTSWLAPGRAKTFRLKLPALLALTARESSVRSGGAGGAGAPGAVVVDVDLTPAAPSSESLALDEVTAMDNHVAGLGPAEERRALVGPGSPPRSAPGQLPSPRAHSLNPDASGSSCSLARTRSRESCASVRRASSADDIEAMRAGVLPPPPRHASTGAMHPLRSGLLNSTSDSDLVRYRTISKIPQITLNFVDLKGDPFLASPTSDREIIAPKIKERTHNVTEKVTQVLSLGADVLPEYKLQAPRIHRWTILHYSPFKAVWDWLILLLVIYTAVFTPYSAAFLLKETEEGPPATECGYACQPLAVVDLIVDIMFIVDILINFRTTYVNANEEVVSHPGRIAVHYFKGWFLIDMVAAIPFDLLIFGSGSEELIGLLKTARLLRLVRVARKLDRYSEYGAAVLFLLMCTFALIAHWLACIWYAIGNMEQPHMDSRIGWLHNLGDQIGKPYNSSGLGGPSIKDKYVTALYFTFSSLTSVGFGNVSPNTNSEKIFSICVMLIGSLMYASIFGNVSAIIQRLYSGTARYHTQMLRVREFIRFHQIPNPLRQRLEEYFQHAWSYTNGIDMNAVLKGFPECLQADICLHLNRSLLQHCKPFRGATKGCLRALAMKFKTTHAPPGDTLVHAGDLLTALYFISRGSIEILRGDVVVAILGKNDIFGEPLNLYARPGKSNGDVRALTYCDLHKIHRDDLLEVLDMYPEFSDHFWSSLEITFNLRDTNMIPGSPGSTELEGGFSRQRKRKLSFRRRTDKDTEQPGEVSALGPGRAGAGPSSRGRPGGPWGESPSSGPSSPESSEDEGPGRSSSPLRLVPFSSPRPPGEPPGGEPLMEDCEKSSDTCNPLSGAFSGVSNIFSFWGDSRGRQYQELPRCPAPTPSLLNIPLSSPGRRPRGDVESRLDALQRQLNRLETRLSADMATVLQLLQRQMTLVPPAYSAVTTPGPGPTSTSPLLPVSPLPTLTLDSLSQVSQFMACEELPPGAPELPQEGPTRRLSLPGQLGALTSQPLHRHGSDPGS

| CYP1A2 Induction fold relative to blank control (CYP1A2) | CYP2B6 Induction fold relative to blank control (CYP2B6) | CYP2B6 Induction percentage relative to positive control (%) (CYP2B6; positive control Phenobarbital) | CYP3A4 Induction fold relative to blank control (CYP3A4) | CYP3A4 Induction percentage relative to positive control (%) (CYP3A4; positive control Rifampicin) | SMILES | EC50 (hTLR8) [µM] | EC50 (hTLR7) [µM] | IC50 (hERG channel) [µM] | CC50 at 24 h [1] [µM] | CC50 at 24 h (in vitro) [µM] |
| --- | --- | --- | --- | --- | --- | --- | --- | --- | --- | --- |
| 1.0 | 1.3 | 4.2 | 4.2 | 2.0 | C=CCCN(C)Cc1c[nH]c(=O)cc1-c1cnc2c(N[C@@](C)(CO)CCCC)nc(N)nc2c1 [Example 9, (R)-4-(2-Amino-4-((1-hydroxy-2-methylhexan-2-yl)amino)pyrido[3,2-d]pyrimidin-7-yl)-5-((but-3-en-1-yl(methyl)amino)methyl)pyridin-2(1H)-one] | 0.02 | 31.8 | 24.7 | > 100 | – |
| – | – | – | – | – | CCCC[C@](C)(CO)Nc1nc(N)nc2cc(-c3cc(=O)n(C)cc3CN3CCNCC3)cnc12 [Example 5] | 2.72 | > 100 | – | – | > 100 |

Reference: patent US20250163051A1, “PYRIMIDO AROMATIC RING COMPOUND AND USE THEREOF IN DRUG” (SUNSHINE LAKE PHARMA CO., LTD., priority 2022, published 2025)
